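Assay format: 96-well plates, 48-hour exposure. GI50 is the concentration that inhibits growth by half.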 The source made the active and inactive calls. No stated cut-off is given here; in the data, active = GI50 up to about 1.1 µM and inactive = higher.
What was measured:
Experiment in all cases: NCI anticancer screen, dose series, 48 h
786-0 = system: 786-0
A498 = system: A498
A549 = system: A549
ACHN = system: ACHN
CAKI-1 = system: CAKI-1
CCRF-CEM = system: CCRF-CEM
COLO 205 = system: COLO 205
DLD-1 = system: DLD-1
DMS-114 = system: DMS-114
DMS-273 = system: DMS-273
EKVX = system: EKVX
HCC 2998 = system: HCC 2998
HCT-116 = system: HCT-116
HCT-15 = system: HCT-15
HL-60 = system: HL-60
HOP-18 = system: HOP-18
HOP-62 = system: HOP-62
HOP-92 = system: HOP-92
HT-29 = system: HT-29
IGROV-1 = system: IGROV-1
K562 = system: K562
KM-20L2 = system: KM-20L2
KM12 = system: KM12
LOX IMVI = system: LOX IMVI
LXFL 529 = system: LXFL 529
M14 = system: M14
M19-MEL = system: M19-MEL
MOLT-4 = system: MOLT-4
Malme-3M = system: Malme-3M
NCI-H226 = system: NCI-H226
NCI-H23 = system: NCI-H23
NCI-H460 = system: NCI-H460
NCI-H522 = system: NCI-H522
OVCAR-3 = system: OVCAR-3
OVCAR-4 = system: OVCAR-4
OVCAR-5 = system: OVCAR-5
OVCAR-8 = system: OVCAR-8
RPMI-8226 = system: RPMI-8226
RXF 393 = system: RXF 393
RXF 631 = system: RXF 631
SF-268 = system: SF-268
SF-295 = system: SF-295
SF-539 = system: SF-539
SK-MEL-28 = system: SK-MEL-28
SK-MEL-2 = system: SK-MEL-2
SK-MEL-5 = system: SK-MEL-5
SK-OV-3 = system: SK-OV-3
SN12C = system: SN12C
SNB-19 = system: SNB-19
SNB-75 = system: SNB-75
SNB-78 = system: SNB-78
SR = system: SR
SW-620 = system: SW-620
TK-10 = system: TK-10
U-251 = system: U-251
UACC-257 = system: UACC-257
UACC-62 = system: UACC-62
UO-31 = system: UO-31
XF498 = system: XF498

COc1cc(/C=C(\OC(C)=O)c2ccc3c(c2)OCO3)cc(OC)c1OC
GI50 (786-0): 29 µM (inactive) | GI50 (A498): 16.1 µM (inactive) | GI50 (A549): 26.7 µM (inactive) | GI50 (ACHN): 17.9 µM (inactive) | GI50 (CAKI-1): 22.1 µM (inactive) | GI50 (CCRF-CEM): 25.4 µM (inactive) | GI50 (COLO 205): 19.9 µM (inactive) | GI50 (DLD-1): 18.6 µM (inactive) | GI50 (DMS-114): 13.4 µM (inactive) | GI50 (DMS-273): 14.8 µM (inactive) | GI50 (EKVX): 15.9 µM (inactive) | GI50 (HCC 2998): > 10 µM (inactive) | GI50 (HCT-116): 18.2 µM (inactive) | GI50 (HCT-15): 16 µM | GI50 (HL-60): 27.4 µM (inactive) | GI50 (HOP-18): 20.9 µM (inactive) | GI50 (HOP-62): 20 µM (inactive) | GI50 (HOP-92): 15.6 µM (inactive) | GI50 (HT-29): 22.3 µM (inactive) | GI50 (IGROV-1): 10.9 µM (inactive) | GI50 (K562): 25.5 µM (inactive) | GI50 (KM-20L2): 31.1 µM (inactive) | GI50 (KM12): 19 µM (inactive) | GI50 (LOX IMVI): 16.1 µM (inactive) | GI50 (LXFL 529): 14.4 µM (inactive) | GI50 (M14): 16.3 µM (inactive) | GI50 (M19-MEL): 14.9 µM (inactive) | GI50 (MOLT-4): 13.3 µM (inactive) | GI50 (Malme-3M): 23 µM (inactive) | GI50 (NCI-H226): 11.5 µM (inactive) | GI50 (NCI-H23): 16.4 µM (inactive) | GI50 (NCI-H460): 33 µM (inactive) | GI50 (NCI-H522): 13.5 µM (inactive) | GI50 (OVCAR-3): 18.3 µM (inactive) | GI50 (OVCAR-4): 18.3 µM (inactive) | GI50 (OVCAR-5): 24.5 µM (inactive) | GI50 (OVCAR-8): 16.3 µM (inactive) | GI50 (RPMI-8226): 20.8 µM (inactive) | GI50 (RXF 393): 24.8 µM (inactive) | GI50 (RXF 631): > 10 µM (inactive) | GI50 (SF-268): 20 µM (inactive) | GI50 (SF-295): 23.8 µM (inactive) | GI50 (SF-539): 18 µM (inactive) | GI50 (SK-MEL-28): 17.7 µM (inactive) | GI50 (SK-MEL-2): 22.8 µM (inactive) | GI50 (SK-MEL-5): 11.8 µM (inactive) | GI50 (SK-OV-3): 17.5 µM (inactive) | GI50 (SN12C): 20.2 µM (inactive) | GI50 (SNB-19): 28.2 µM (inactive) | GI50 (SNB-75): 20.6 µM (inactive) | GI50 (SNB-78): 35.5 µM (inactive) | GI50 (SR): 8.2 µM (inactive) | GI50 (SW-620): 28.5 µM (inactive) | GI50 (TK-10): 26.6 µM (inactive) | GI50 (U-251): 18.5 µM (inactive) | GI50 (UACC-257): 18.4 µM (inactive) | GI50 (UACC-62): 16.6 µM (inactive) | GI50 (UO-31): 4.15 µM (inactive) | GI50 (XF498): 14 µM (inactive)

Cc1cc2cccc(Cl)c2nc1C(=O)c1ccccc1
GI50 (A549): > 100 µM (inactive) | GI50 (ACHN): > 100 µM (inactive) | GI50 (CAKI-1): > 100 µM (inactive) | GI50 (COLO 205): > 100 µM (inactive) | GI50 (DLD-1): > 100 µM (inactive) | GI50 (DMS-114): > 100 µM (inactive) | GI50 (DMS-273): > 100 µM (inactive) | GI50 (HCC 2998): > 100 µM (inactive) | GI50 (HCT-116): > 100 µM (inactive) | GI50 (HCT-15): > 100 µM | GI50 (HOP-18): 18.7 µM (inactive) | GI50 (HOP-62): 44.1 µM (inactive) | GI50 (IGROV-1): > 100 µM (inactive) | GI50 (K562): > 100 µM (inactive) | GI50 (KM-20L2): > 100 µM (inactive) | GI50 (KM12): > 100 µM (inactive) | GI50 (LOX IMVI): 94.4 µM (inactive) | GI50 (LXFL 529): > 100 µM (inactive) | GI50 (M14): 76.2 µM (inactive) | GI50 (M19-MEL): > 100 µM (inactive) | GI50 (Malme-3M): 50.5 µM (inactive) | GI50 (NCI-H226): > 100 µM (inactive) | GI50 (NCI-H23): > 100 µM (inactive) | GI50 (NCI-H522): 41.2 µM (inactive) | GI50 (OVCAR-3): > 100 µM (inactive) | GI50 (OVCAR-4): 86.3 µM (inactive) | GI50 (OVCAR-5): > 100 µM (inactive) | GI50 (OVCAR-8): 46.3 µM (inactive) | GI50 (RPMI-8226): > 100 µM (inactive) | GI50 (RXF 393): 26.6 µM (inactive) | GI50 (RXF 631): 89.3 µM (inactive) | GI50 (SF-268): > 100 µM (inactive) | GI50 (SF-295): 18.9 µM (inactive) | GI50 (SF-539): > 100 µM (inactive) | GI50 (SK-MEL-28): > 100 µM (inactive) | GI50 (SK-MEL-2): > 100 µM (inactive) | GI50 (SK-MEL-5): > 100 µM (inactive) | GI50 (SN12C): > 100 µM (inactive) | GI50 (SNB-19): 70.3 µM (inactive) | GI50 (SNB-75): 17.1 µM (inactive) | GI50 (SNB-78): > 100 µM (inactive) | GI50 (SR): > 100 µM (inactive) | GI50 (SW-620): > 100 µM (inactive) | GI50 (TK-10): > 100 µM (inactive) | GI50 (U-251): > 100 µM (inactive) | GI50 (UACC-257): 18.2 µM (inactive) | GI50 (UACC-62): > 100 µM (inactive) | GI50 (UO-31): > 100 µM (inactive) | GI50 (XF498): 82 µM (inactive)
